Data reported in publication PMC7244523, “A Cell-based Screen in Actinomyces oris to Identify Sortase Inhibitors” (Scientific Reports, 2020).
Values after ≈ are worked out from the molar mass of the structure shown.

Experiments:
[1] = test system: A. oris MG-1 (wild-type) versus ΔsrtA/ΔgspA strain; experiment: High-throughput cell-based growth screen and counter-screen (differential growth); parameters: species or system Actinomyces oris; conditions: differential effect on wild-type MG-1 and ΔgspAΔsrtA strains in the HTS; 10 µM, in duplicate; 100 = extreme difference, 0 = none
Experimental: In the primary screen, a total of 200,834 small molecules were tested for their ability to impair A. oris MG-1 growth. Cells were added to an optical density (OD600) of 0.01 in media containing 10 µM of each molecule, followed by a 15 hour incubation at 37 °C and end-point OD600 measurement. The growth effect of each molecule was normalized and expressed as a percent growth relative to the DMSO-only control (see Methods). A total of 1,904 molecules were classified as preliminary hits (0.95% of the molecules tested), as they reduced MG-1 growth after 15 hours by at least 34%, or 2.75 standard deviations below the average. The preliminary hits were then subjected to a counter-screen in which their growth effects on ΔsrtA/ΔgspA were determined. In order to eliminate potentially erroneously identified preliminary hits, the counter-screen and preliminary screen was performed in duplicate for the 1,904 preliminary hit molecules. A molecule was deemed as a hit if it caused greater than 15% differential growth effect in duplicate when the MG-1 and ΔsrtA/ΔgspA strains were compared. […] Data is plotted as the percentage of growth inhibition for each molecule (see Methods).
A total of 200,834 small molecule compounds (Molecular Screening Shared Resource, UCLA) were dissolved in 100% Omnisolv methylsulfoxide (MilliporeSigma MX1456P-6) and stored in 384-well polypropylene plates. Actinomyces oris MG-1 and ΔgspAΔsrtA were streaked out on BHI agar plates containing 50 µg/mL kanamycin and grown at 37 °C for 48 hours to allow single colonies to grow. Cultures were started from 2–3 colonies in BHI with 50 µg/mL kanamycin and allowed to grow until an OD600 between 0.1–0.4. Meanwhile, 384-well plates were filled with 25 µL BHI broth with 100 µg mL^−1 kanamycin (columns 1–22) or 200 µg mL^−1 Penicillin G (positive control, columns 23–24). Five hundred nanoliters of small molecules were transferred into the media (columns 3–22) using the Biomex FX^P automated work station with a 384-well pin tool. Precultures were diluted to an OD600 of 0.02 in 1 L BHI broth without antibiotics. Twenty five microliters of cell culture was immediately aliquoted into plates containing 25 µL media, antibiotics, and small-molecules using a Multidrop (Thermo LabSystems), resulting in 50 µg mL^−1 kanamycin and 10 µM small molecules with 1% DMSO or 100 µg mL^−1 Penicillin G. Plates were immediately lidded and placed into a humidified Cytomat 6001 incubator at 37 °C and allowed to grow for 15.5 hours. Following incubation, plates were removed from the Cytomat using a Thermo Spinnaker robotic arm on a rail, de-lidded, and placed into an EnVision high-speed plate reader for optical density measurement at 620 nm.
Raw data obtained from the screen was formatted in-house to upload to the Collaborative Drug Discovery Vault (www.collaborativedrug.com). Individual optical density readings were converted to a percent growth value ([ODsample-ODPositive control]/[ODNegative Control Average- ODPositive control]) and percent growth inhibition (1-percent growth). The Z-factors for the individual molecules were determined. Molecules with a Z-factor less than or equal to -2.75 were considered preliminary hits to advance forward a generous collection of preliminary hit molecules. Five microliters of each of the 1904 preliminary hit molecules were re-arrayed into new 384-well polypropylene plates. Each of the 1904 preliminary hits were assayed against both the MG-1 and ΔgspAΔsrtA strains in duplicate, on two separate days. Percent difference of growth was calculated according to the equation 100–100[(ODMG-1, Sample-ODMG-1, Positive Control)/ODΔgspAΔsrtA, Sample-ODΔgspAΔsrtA, Positive Control)]/[(ODMG-1, Average-ODMG-1, Positive Control)/ODΔgspAΔsrtA, Average-ODΔgspAΔsrtA, Positive Control)]. […] Molecules were ranked according to their relative growth.

A. oris MG-1 = experiment: Minimum inhibitory concentration, MG-1 strain; type: cell-based; conditions: Actinomyces oris, MG1; BHI, 96-well plates, 18 hours
Experimental: (§1) Two validation assays were performed for each hit molecule that measured: (i) the minimum inhibitory concentration (MIC) required to prevent growth of the MG-1 and ΔsrtA/ΔgspA strains, and (ii) their in vitro inhibitory activity against the enzymatic activity of the A. oris and S. aureus sortase enzymes. Initially, the selective growth effect originally observed in the HTS that used 384-well plates was more rigorously defined by determining each molecule’s MIC value for the MG-1 and ΔsrtA/ΔgspA strains. Cells were cultured in 100 µL media containing 2-fold dilutions of each small molecule between 320 µM and 0.039 µM (approximately 134 µg mL^−1 to […]).
(§2) Minimum inhibitory concentration (MIC) values were determined for molecules 1–6 according to the Clinical Laboratory Standard Institutes’ (CLSI) Methods for Dilution Antimicrobial Susceptibility Tests for Bacteria that Grow Aerobically, Approved standards-ninth edition; M07-A9 Vol. 32 No. 2 with the following alterations. Overnight cultures of MG-1 and ΔgspAΔsrtA were diluted to OD600 values of 0.01 before being added to BHI containing the appropriate molecule in 96-well plates. Mueller-Hinton broth was not usable because A. oris is a fastidious bacterium. Plates were sealed with Breatheasy seals and incubated for 18 hours, as A. oris has a doubling time of 2 hours. Plate seals were removed and OD600 values measured. Each plate was run with a positive control (cells, media, and Penicillin G), negative control (media and cells only), and contamination control (media only).

A. oris ΔgspAΔsrtA = experiment: Minimum inhibitory concentration, ΔgspA/ΔsrtA strain; type: cell-based, Actinomyces oris; conditions: BHI, 96-well plates, 18 hours
Experimental: as §1, §2

[2] = test system: A. oris ΔgspA and ΔlcpA strains; experiment: Pilus display by transmission electron microscopy; type: cell-based, Actinomyces oris; conditions: 10 μM; for Pilus assembly at the cell pole (TEM): ΔgspA or ΔlcpA strain, versus untreated control; for Pili display (TEM): ΔgspA strain, Fig. 5A–D
Experimental: To examine if these molecules inhibit cell wall anchoring of surface proteins (e.g. GspA), we similarly treated cells devoid of lcpA, i.e. ΔlcpA, another suppressor of srtA[46]. […] To corroborate these observations, we subjected A. oris cells of ΔgspA and Δlcp strains to 10 μM of each molecule (3, 4 and 6) and studied pilus display with transmission electron microscopy (TEM), whereby A. oris cells were immobilized on nickel grids and stained with 1% uranyl acetate prior to viewing by an electron microscope.
To observe cell morphology by negative staining, A. oris cells harvested after inhibitor treatment were washed once with PBS and suspended in 0.1 M NaCl. A drop of 7 µL of bacterial suspension was placed onto carbon-coated nickel grids and stained with 1% uranyl acetate. Samples were examined using a JEOL JEM1200.

| SMILES | Differential Growth [1] [%] | MIC (A. oris MG-1) [µg/mL] | MIC (ΔgspA/ΔsrtA) (A. oris ΔgspAΔsrtA) [µg/mL] | Pilus assembly at the cell pole (TEM) [2] | Pili display (TEM) [2] |
| --- | --- | --- | --- | --- | --- |
| Cc1nc(COc2ccc(F)cc2)sc1CC(=O)Nc1nc2c(s1)CC(C)CC2 (stereo not drawn) [Compound 6] | 71.8 ± 16.5 | 2.1 (≈ 4.87 µM) | 8.4 (≈ 19.5 µM) | significant reduction of pilus assembly at the cell pole | only modestly effects pili display |
| CCc1ccc2nc(N(Cc3cccnc3)C(=O)c3ccc([N+](=O)[O-])o3)sc2c1 [Compound 3] | 17.5 ± 3.5 | 8.2 (≈ 20.1 µM) | >130 | significant reduction of pilus assembly at the cell pole | completely absent |
| COc1ccc2nc(N(Cc3ccccc3)C(=O)c3ccc([N+](=O)[O-])o3)sc2c1 [Compound 4] | 38.5 ± 0.5 | 16.4 (≈ 40.1 µM) | >130 | significant reduction of pilus assembly at the cell pole | diminished |
